# Data published in patent US7524964B2, “Tetrahydrothiopyrano pyrazole cannabinoid modulators” (Janssen Pharmaceutica NV, priority 2005, dated 2009).
# pIC50: −log10 of the molar value.
# How the values were obtained:
# human CB-2 receptor = target: T1, human CB-2 receptor (Homo sapiens, UniProt P34972); experiment: Binding assay, cannabinoid CB2 receptor ([3H]-CP-55,940 displacement)
# T1 construct: expressed in transfected cells; host or cells: SK-N-MC cells, pcDNA3 CB-2 (human), semi-purified membranes
# In short: (§1)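 Displacement of 0.2 nM [3H]-CP-55,940 (non-specific: 10 uM WIN 55,212) was run on semi-purified membranes of transfected SK-N-MC cells carrying human CB-1 or CB-2, 90 min, 30° C, pH 7.5. Scintillation counting; IC50 by linear regression, else % inhibition at 0.2, 1 or 10 μM.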
# human CB1 receptor [1] = target: T2, human CB1 receptor (Homo sapiens, UniProt P21554); experiment: Binding assay, cannabinoid CB1 receptor ([3H]-CP-55,940 displacement); set-up: expressed in transfected cells; host or cells: SK-N-MC cells, pcDNA3 CB-1 (human), semi-purified membranes
# In short: as §1
# human CB1 receptor [2] = target: T2, human CB1 receptor; experiment: Functional cell-based assay, CB1 receptor mediated change in CRE β-gal expression (adenylate cyclase activity); set-up: expressed in transfected cells; host or cells: SK-NC cells [sic], pcDNA3-CRE β-gal and pcDNA3 CB-1 (human)
# Source text: Functional Cell-Based Assay for CB1 or CB2 Agonist and Inverse Agonist Effects on Intra-Cellular Adenylate Cyclase Activity
# The CB1 and CB2 receptors are G-protein coupled receptors (GPCR), which influence cell function via the Gi-protein. These receptors modulate the activity of intracellular adenylate cyclase, which in turn produces the intracellular signal messenger cyclic-AMP (cAMP).
# At baseline, or during non-ligand bound conditions, these receptors are constitutively active and tonically suppress adenylate cyclase activity. The binding of an agonist causes further receptor activation and produces additional suppression of adenylate cyclase activity. The binding of an inverse agonist inhibits the constitutive activity of the receptors and results in an increase in adenylate cyclase activity.
# By monitoring intracellular adenylate cyclase activity, the ability of compounds to act as agonists or inverse agonists can be determined.
# Test compounds were evaluated in SK-NC cells which, using standard transfection procedures, were stably transfected with human cDNA for pcDNA3-CRE β-gal and pcDNA3 CB-1 (human) or pcDNA3 CB-2 (human). By expressing CRE β-gal, the cells produced β-galactosidase in response to CRE promoter activation by cAMP. Cells expressing CRE β-gal and either the human CB1 or CB2 receptor will produce less β-galactosidase when treated with a CB1/CB2 agonist and will produce more β-galactosidase when treated with a CB1/CB2 inverse agonist.
# The cells were grown in 96-well plates under standard cell culture conditions at 37° C. in a 5% CO2 atmosphere. After 3 days, the media was removed and a test compound in media (wherein the media was supplemented with 2 mM L-glutamine, […] sodium pyruvate, 0.1% low fatty acid FBS (fetal bovine serum) and antibiotics) was added to the cell. The plates were incubated for 30 minutes at 37° C. and the plate cells were then treated with forskolin over a 4-6 hour period, then washed and lysed. The β-galactosidase activity was quantitated using commercially available kit reagents (Promega Corp. Madison, Wis.) and a Vmax Plate Reader (Molecular Devices, Inc).
# For cells expressing CRE β-gal and the CB1 receptor, CB1 agonists reduced β-galactosidase activity in a dose-dependent manner and CB1 inverse agonists increased β-galactosidase activity in a dose-dependent manner.
# The change in β-galactosidase activity was determined by setting a vehicle treated cell's activity value at 100% and expressing the β-galactosidase activity measured in a corresponding compound treated cell as a percent of the vehicle treated cell activity.
# The EC50 and IC50 values for compounds tested were calculated by linear regression and were obtained from studies in which varying compound concentrations were used.
# The EC50 values for compounds tested were calculated by linear regression and were obtained from studies in which varying compound concentrations were used. Where an EC50 was not obtained, test results are provided as percent inhibition at a test concentration of 1 μM. ^aTest value in IC50; indicates agonist activity.
# T2 sequence (P21554 whole entry): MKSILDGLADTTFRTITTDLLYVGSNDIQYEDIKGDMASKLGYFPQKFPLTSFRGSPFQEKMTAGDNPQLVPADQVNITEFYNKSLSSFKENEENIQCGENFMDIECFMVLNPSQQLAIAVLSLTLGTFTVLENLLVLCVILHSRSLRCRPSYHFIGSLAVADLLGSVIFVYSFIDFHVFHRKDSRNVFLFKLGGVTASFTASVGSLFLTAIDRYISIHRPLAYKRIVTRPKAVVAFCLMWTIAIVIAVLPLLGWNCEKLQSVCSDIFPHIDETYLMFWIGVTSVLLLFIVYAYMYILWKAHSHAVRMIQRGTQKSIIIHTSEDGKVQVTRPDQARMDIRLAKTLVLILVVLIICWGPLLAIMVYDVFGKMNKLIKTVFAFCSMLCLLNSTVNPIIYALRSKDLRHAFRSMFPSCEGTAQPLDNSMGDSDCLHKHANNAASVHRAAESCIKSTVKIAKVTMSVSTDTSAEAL
# T1 sequence (P34972 whole entry): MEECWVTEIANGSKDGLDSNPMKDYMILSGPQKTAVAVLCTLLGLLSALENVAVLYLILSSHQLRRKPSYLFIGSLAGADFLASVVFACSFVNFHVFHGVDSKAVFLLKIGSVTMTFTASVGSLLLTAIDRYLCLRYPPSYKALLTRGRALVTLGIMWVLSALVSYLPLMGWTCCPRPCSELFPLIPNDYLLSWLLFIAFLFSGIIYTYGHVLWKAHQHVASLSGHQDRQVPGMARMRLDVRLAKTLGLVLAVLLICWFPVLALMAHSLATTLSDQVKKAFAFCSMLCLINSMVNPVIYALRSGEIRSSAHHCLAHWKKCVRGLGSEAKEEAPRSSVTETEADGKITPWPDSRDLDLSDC
SMILES,pIC50 (human CB-2 receptor),pIC50 (human CB1 receptor [1]),pIC50 (human CB1 receptor [2]),"inhibition at 1 µM (human CB1 receptor [1]; test concentration 1 μM (superscript b), read-out: CB1 binding percent inhibition)"
"CC12CCC(C1)C(C)(C)C2NC(=O)c1nn(Cc2ccccc2)c2c1CS(=O)(=O)CC2 (stereo not drawn) [Cpd 20, 1-benzyl-5,5-dioxo-4,5,6,7-tetrahydro-1H-5λ^6-thiopyrano[4,3-c]pyrazole-3-carboxylic acid (1,3,3-trimethyl-bicyclo[2.2.1]hept-2-yl)-amide]",8.30,7.66,7.22,
"C[C@@H](NC(=O)c1nn(Cc2ccccc2)c2c1CSCC2)c1ccccc1 [Cpd 1, 1-benzyl-1,4,6,7-tetrahydro-thiopyrano[4,3-c]pyrazole-3-carboxylic acid [(1R)-1-phenyl-ethyl]-amide]",7.21,6.80,7.15,
"CC12CCC(C1)C(C)(C)C2NC(=O)c1nn(Cc2ccccc2)c2c1C[S+]([O-])CC2 (stereo not drawn) [Cpd 21, 1-benzyl-5-oxo-4,5,6,7-tetrahydro-1H-5λ^4-thiopyrano[4,3-c]pyrazole-3-carboxylic acid (1,3,3-trimethyl-bicyclo[2.2.1]hept-2-yl)-amide]",7.25,,5.20,53%
